For series [1], the system named is DU145 cell line. The series is described as follows: Cancer cell death by double target siRNA and anticancer agent, MTT cell viability. Format: cell-based. How it is done: (§1) After incubating the DU145 cell line and the H460 cell line in 6-well plates respectively, we transfected the double target siRNA set 1 (si-AT1) according to the present disclosure thereto. Then, as 48 hours lapsed, the cells were treated with cisplatin 50 uM, etoposide 20 uM or Taxol 1 uM and were incubated for 16 hours. Thereafter, the cells were treated with 5 mg/mL MTT (Promega, Ltd.) and incubated for 4 hours, and then the medium was removed. The cells were treated with 150 μl of solubilization solution and stop solution and then were incubated at 37° C. for 4 hours. Absorbance of the reaction solution was measured at 570 nm and cell viability was calculated using the following equation. Cell viability=(Absorbance of experiment group at 570 nm/Absorbance of control at […])×100(%) [Equation 1]

The test system of series [2] is mTOR gene. The series can be described thus: mTOR gene expression inhibition by siRNA transfection, RT-PCR/qPCR of mRNA (PC3 and h460 cell lines). Format: cell-based, human. To be noted: 80 pmole siRNA per well, 48 hours after transfection, normalized to GAPDH. How it is done:
(§2) We dispensed PC3 and h460 cell lines into 12-well plates, and incubated the same at 37° C. and 5% CO2 condition in RPMI medium (Hyclone company) with 10% FBS (Hyclone company) until a cell confluent reaches 50%. Thereafter, 3 μl of lipofectamine 3000 (Invitrogen, Carlsbad, Calif., USA) was used to transfect the double target siRNA set 1 prepared in the Example 1 (si-AT 1) to the wells in which the cells were cultured at 80 pmole per well. Thus, AR and mTOR were knocked down simultaneously. In addition, siRNA to AR and siRNA to mTOR were transfected respectively, as listed in the following table 3, as a positive control. At 48 hours after the transfection, cells were crushed, and total RNA was extracted using GeneJET RNA Purification Kit (Invitrogen). While using the extracted total RNA as a template, the same was subjected to reverse transcription into cDNA via RT-PCR reaction. Then, mRNA expression levels of AR and mTOR by each siRNA and by the double target siRNA set 1 (si-AT1) according to the present disclosure was identified via q-PCR reaction. To identify the mRNA expression levels, the mRNA of AR and mTOR in the cell lysates knocked down by PCR conditions of Table 6 was converted to cDNA using the primer set from Table 4 and the reaction mixture from Table 5. […]

The subject of series [3] is AR gene. The series is described as follows: AR gene expression inhibition by siRNA transfection, RT-PCR/qPCR of mRNA (PC3 and h460 cell lines). Format: cell-based, human. Conditions: 80 pmole siRNA per well, 48 hours after transfection, normalized to GAPDH. How it is done:
as §2

In series [4] the test system is H460 cell line. The series is described as follows: Cancer cell death by double target siRNA and anticancer agent, MTT cell viability. Format: cell-based. How it is done: as §1
Setting [5] is: anticancer agent without double target siRNA, cisplatin 50 uM, etoposide 20 uM or Taxol 1 uM, 16 hours.
The mark [6] stands for this setting: siRNA transfected, after 48 hours Taxol 1 uM for 16 hours.
Where [7] appears, read: siRNA transfected, after 48 hours etoposide 20 uM for 16 hours.

For the compound `COc1cc([C@@H]2c3cc4c(cc3[C@@H](O[C@@H]3O[C@@H]5CO[C@@H](C)O[C@H]5[C@H](O)[C@H]3O)[C@H]3COC(=O)[C@H]23)OCO4)cc(OC)c1O` [etoposide, reference compound], in series [1] (setting [5]), the “cancer cell death (cell viability, MTT)” value was “a little anticancer activity”.
With “si-AT1: AR and mTOR double target double strand siRNA, 20mer, SEQ ID NOs: 1 and 2 (chain 1 GCUGCUGCUGCUGCCUGGGG; chain 2 CCCCAUGCAGCUGCAGCAGC; listed as RNA, chemistry not given here)”, the “mRNA expression level of mTOR” value in series [2] (PC3 cells) and in series [2] (h460 cell line) was “reduced” throughout. The “mRNA expression level of AR” value in series [3] (PC3 cells) and in series [3] (h460 cell line) was “reduced” in each case. In addition, the “cancer cell death (cell viability, MTT)” value in series [1] (siRNA alone ("no treat", no anticancer agent)) is on record as “caused apoptosis”; in series [1] (setting [6]), “significant improvement in the DU145 cell death”; in series [1] (siRNA transfected, after 48 hours cisplatin 50 uM for 16 hours), “induced the apoptosis”; in series [1] (setting [7]), “significant improvement in the DU145 cell death”; in series [4] (siRNA alone), “showed apoptosis effect”; in series [4] (setting [6]), “significant anticancer activity”. The “cancer cell death (cell viability, MTT)” value in series [4] (setting [7]) was “significant anticancer activity”.
As for `CC(=O)O[C@H]1C(=O)[C@@]2(C)[C@H]([C@H](OC(=O)c3ccccc3)[C@]3(O)C[C@H](OC(=O)[C@H](O)[C@@H](NC(=O)c4ccccc4)c4ccccc4)C(C)=C1C3(C)C)[C@]1(OC(C)=O)CO[C@@H]1C[C@@H]2O` [taxol, reference compound], in series [1] (setting [5]), the “cancer cell death (cell viability, MTT)” value is on record as “a little anticancer activity”.
Still for that read-out and setting: the value for `N.N.[Cl][Pt][Cl]` [cisplatin, reference compound] was “apoptosis effect was not achieved”.

Values taken from patent publication US10947542B2, “Nucleic acid simultaneously inhibiting expression of AR gene and mTOR gene” (CURIGIN CO., LTD., priority 2017, dated 2021).
